The results in this text go back to patent US20240174680A1, “CDK2 INHIBITORS AND METHODS OF USING THE SAME” (Cedilla Therapeutics, Inc., priority 2021, published 2024).

The target of this assay is CDK2/Cyclin E1 (Homo sapiens, UniProt P24941). As to the kind of experiment: CDK2/Cyclin E1 Caliper LabChip EZ Reader mobility shift assay. Conditions: read-out: Caliper Assay (CDK2/CCNE1): IC50. The format is biochemical. On the set-up: purchased Eurofins 14-475. The method, boiled down:
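Substrate-to-product conversion of fluorescent peptide (1.5 μM final) read by capillary electrophoresis after 100 min reaction, EDTA-quenched. Enzyme (2.5 nM final) and ATP (100 μM final) were preincubated 30 min with inhibitor dilutions first. % activity vs concentration fitted four-parameter for IC50.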

Each structure is given as a SMILES string. Where only a bound is given, the exact number is not on record here.

Consider `CNC(=O)[C@@H](NC(=O)[C@@H]1CN(C(=O)c2cnn(Cc3ccccc3)c2)CC12CN(C(=O)C1C(C)(C)C1(C)C)C2)[C@@H](C)OCc1ccccc1` [I-89A], for which the IC50 lay in the range of 1000 to 10000 nM. For `CNC(=O)[C@@H](NC(=O)[C@H]1CN(C(=O)c2cnn(Cc3ccccc3)c2)CC12CN(C(=O)C1C(C)(C)C1(C)C)C2)[C@@H](C)OCc1ccccc1` [I-89B] the value was > 10000 nM; for `CNC(=O)[C@@H](NC(=O)[C@@H]1CN(C(=O)c2cnn(Cc3ccccc3)c2)CC12CN(C(=O)C(C)(C)F)C2)[C@@H](C)OCc1ccccc1` [I-90A], 100 to 1000 nM; for `CNC(=O)[C@@H](NC(=O)[C@H]1CN(C(=O)c2cnn(Cc3ccccc3)c2)CC12CN(C(=O)C(C)(C)F)C2)[C@@H](C)OCc1ccccc1` [I-90B], > 10000 nM. For `CC1(C)C[C@@H]1C(=O)N1CC2(CN(C(=O)c3cnn(Cc4ccccc4)c3)C[C@H]2C(=O)N2CCCC(Cc3ccccc3)C2)C1` (stereo partly drawn) [I-91A], the IC50 was > 10000 nM.

As to `CC1(C)C[C@@H]1C(=O)N1CC2(CN(C(=O)c3cnn(Cc4ccccc4)c3)C[C@@H]2C(=O)N2CCCC(Cc3ccccc3)C2)C1` (stereo partly drawn) [I-91B], the IC50 was > 10000 nM. As to `CNC(=O)[C@@H](NC(=O)[C@@H]1CN(C(=O)c2cnn(Cc3ccccc3)c2)CC12CN(C(=O)CC1(CO)CC1)C2)[C@@H](C)OCc1ccccc1` [I-92A], the IC50 is > 10000 nM. Take `CNC(=O)[C@@H](NC(=O)[C@H]1CN(C(=O)c2cnn(Cc3ccccc3)c2)CC12CN(C(=O)CC1(CO)CC1)C2)[C@@H](C)OCc1ccccc1` [I-92B]: the IC50 is > 10000 nM.

On to `CC1(C)C[C@@H]1C(=O)N1CC2(CN(C(=O)c3cnn(Cc4ccccc4)c3)CC2C(=O)Nc2ncc(-c3ccccc3)o2)C1` (stereo partly drawn) [I-93], for which the IC50 was 1000 to 10000 nM. For `CCCCC1CC1C(=O)N1CC2(CN(C(=O)c3cnn(Cc4ccccc4)c3)C[C@H]2C(=O)N[C@H](C(=O)NC)[C@@H](C)OCc2ccccc2)C1` (stereo partly drawn) [I-94A] the value was > 10000 nM; for `CCCCC1CC1C(=O)N1CC2(CN(C(=O)c3cnn(Cc4ccccc4)c3)C[C@@H]2C(=O)N[C@H](C(=O)NC)[C@@H](C)OCc2ccccc2)C1` (stereo partly drawn) [I-94B], > 10000 nM; for `CNC(=O)[C@@H](NC(=O)[C@@H]1CN(C(=O)c2cnn(CC3CCOCC3)c2)CC12CN(C(=O)[C@H]1CC1(C)C)C2)[C@@H](C)OCc1ccccc1` [I-95A], 100 to 1000 nM.

Turning to `CNC(=O)[C@@H](NC(=O)[C@H]1CN(C(=O)c2cnn(CC3CCOCC3)c2)CC12CN(C(=O)[C@H]1CC1(C)C)C2)[C@@H](C)OCc1ccccc1` [I-95B], the IC50 is > 10000 nM. `CC1(C)C[C@@H]1C(=O)N1CC2(CN(C(=O)c3cnn(Cc4ccccc4)c3)C[C@H]2C(=O)NCCOCc2ccccc2)C1` [I-96A]: the IC50 was in the range of 100 to 1000 nM.

`CC1(C)C[C@@H]1C(=O)N1CC2(CN(C(=O)c3cnn(Cc4ccccc4)c3)C[C@@H]2C(=O)NCCOCc2ccccc2)C1` [I-96B]: the IC50 was > 10000 nM. For `C[C@@H](OCc1ccccc1)[C@H](NC(=O)C1CN(C(=O)c2cnn(Cc3ccccc3)c2)CC12CN(C(=O)[C@H]1CC1(C)C)C2)C(=O)N1CCCCC1` (stereo partly drawn) [I-97, 6-(1-benzyl-1H-pyrazole-4-carbonyl)-N-((2S,3R)-3-(benzyloxy)-1-oxo-1-(piperidin-1-yl)butan-2-yl)-2-((S)-2,2-dimethylcyclopropanecarbonyl)-2,6-diazaspiro[3.4]octane-8-carboxamide] the value was 10 to 100 nM; for `C[C@@H](OCc1ccccc1)[C@H](NC(=O)C1CN(C(=O)c2cnn(Cc3ccccc3)c2)CC12CN(C(=O)[C@H]1CC1(C)C)C2)C(=O)N1CCCC(CO)C1` (stereo partly drawn) [I-98], 10 to 100 nM; for `CNC(=O)[C@H](COCc1ccccc1)NC(=O)[C@@H]1CN(C(=O)c2cnn(Cc3ccccc3)c2)CC12CN(C(=O)C(C)(C)C)C2` [I-100A], 1000 to 10000 nM. For `CNC(=O)[C@H](COCc1ccccc1)NC(=O)[C@H]1CN(C(=O)c2cnn(Cc3ccccc3)c2)CC12CN(C(=O)C(C)(C)C)C2` [I-100B] the value was > 10000 nM; for `CNC(=O)[C@H](CCCc1ccccc1)NC(=O)[C@@H]1CN(C(=O)c2cnn(Cc3ccccc3)c2)CC12CN(C(=O)[C@H]1CC1(C)C)C2` [I-101A], 100 to 1000 nM; for `CNC(=O)[C@H](CCCc1ccccc1)NC(=O)[C@H]1CN(C(=O)c2cnn(Cc3ccccc3)c2)CC12CN(C(=O)[C@H]1CC1(C)C)C2` [I-101B], > 10000 nM. For `CNC(=O)[C@@H](NC(=O)[C@@H]1CN(C(=O)c2cnn(Cc3ccccc3)c2)CC12CN(C(=O)C1(CCOC)CC1)C2)[C@@H](C)OCc1ccccc1` [I-102A] the value was > 10000 nM; for `CNC(=O)[C@@H](NC(=O)[C@H]1CN(C(=O)c2cnn(Cc3ccccc3)c2)CC12CN(C(=O)C1(CCOC)CC1)C2)[C@@H](C)OCc1ccccc1` [I-102B], > 10000 nM; for `CNC(=O)[C@@H](NC(=O)[C@@H]1CN(C(=O)c2cncs2)CC12CN(C(=O)CC1CC1)C2)[C@@H](C)OCC1CCCCC1` [I-103A], 100 to 1000 nM. With `CNC(=O)[C@@H](NC(=O)[C@H]1CN(C(=O)c2cncs2)CC12CN(C(=O)CC1CC1)C2)[C@@H](C)OCC1CCCCC1` [I-103B], the IC50 is > 10000 nM. For `C[C@@H]1C[C@H](C)CN(C(=O)[C@@H](NC(=O)C2CN(C(=O)c3cnn(Cc4ccccc4)c3)CC23CN(C(=O)[C@H]2CC2(C)C)C3)[C@@H](C)OCC2CCCCC2)C1` (stereo partly drawn) [I-104] the value was 10 to 100 nM; for `C[C@@H](OCC1CCCCC1)[C@H](NC(=O)C1CN(C(=O)c2cnn(Cc3ccccc3)c2)CC12CN(C(=O)[C@H]1CC1(C)C)C2)C(=O)N1CCCC(CO)C1` (stereo partly drawn) [I-105], ≤ 10 nM; for `C[C@@H](OCc1ccccc1)[C@H](NC(=O)C1CN(C(=O)c2cnn(Cc3ccccc3)c2)CC12CN(C(=O)[C@H]1CC1(C)C)C2)C(=O)N1CC2(CCC2)C1` (stereo partly drawn) [I-106], 10 to 100 nM. Regarding `C[C@@H](OCC1CCCCC1)[C@H](NC(=O)C1CN(C(=O)c2cnn(Cc3ccccc3)c2)CC12CN(C(=O)[C@H]1CC1(C)C)C2)C(=O)N1CC2(CCC2)C1` (stereo partly drawn) [I-107], the IC50 was ≤ 10 nM.

For `CNC(=O)[C@@H](NC(=O)[C@@H]1CN(C(=O)c2cnn(Cc3ccccc3)c2)CC12CN(C(=O)C1(C(F)(F)F)CC1)C2)[C@@H](C)OCc1ccccc1` [I-108A], the IC50 is 100 to 1000 nM. For `CNC(=O)[C@@H](NC(=O)[C@H]1CN(C(=O)c2cnn(Cc3ccccc3)c2)CC12CN(C(=O)C1(C(F)(F)F)CC1)C2)[C@@H](C)OCc1ccccc1` [I-108B] the value was > 10000 nM; for `CNC(=O)[C@@H](NC(=O)[C@@H]1CN(C(=O)c2cnn(Cc3ccccc3)c2)CC12CN(C(=O)[C@H]1CC1(C)C)C2)[C@@H](C)OCC1CCCC1` [I-110A], 10 to 100 nM. As for `CNC(=O)[C@@H](NC(=O)[C@H]1CN(C(=O)c2cnn(Cc3ccccc3)c2)CC12CN(C(=O)[C@H]1CC1(C)C)C2)[C@@H](C)OCC1CCCC1` [I-110B], the IC50 lay in the range of 100 to 1000 nM. For `CNC(=O)[C@@H](NC(=O)[C@@H]1CN(C(=O)c2n[nH]c3ccccc23)CC12CN(C(=O)[C@H]1CC1(C)C)C2)[C@@H](C)OCc1ccccc1` [I-112A] the value was 1000 to 10000 nM; for `CNC(=O)[C@@H](NC(=O)[C@H]1CN(C(=O)c2n[nH]c3ccccc23)CC12CN(C(=O)[C@H]1CC1(C)C)C2)[C@@H](C)OCc1ccccc1` [I-112B], > 10000 nM. For `CNC(=O)[C@H](COCc1ccccc1)NC(=O)[C@@H]1CN(C(=O)c2cnn(Cc3ccccc3)c2)CC12CN(C(=O)C1(C(F)(F)F)CC1)C2` [I-113A, (S)-6-(1-benzyl-1H-pyrazole-4-carbonyl)-N—((S)-3-(benzyloxy)-1-(methylamino)-1-oxopropan-2-yl)-2-(1-(trifluoromethyl)cyclopropane-1-carbonyl)-2,6-diazaspiro[3.4]octane-8-carboxamide] the value was 1000 to 10000 nM; for `CNC(=O)[C@@H](NC(=O)[C@@H]1CN(C(=O)c2cnn(Cc3ccccc3)c2)CC12CN(C(=O)C1(C3CC3)CC1)C2)[C@@H](C)OCc1ccccc1` [I-114A], 100 to 1000 nM; for `CNC(=O)[C@@H](NC(=O)[C@H]1CN(C(=O)c2cnn(Cc3ccccc3)c2)CC12CN(C(=O)C1(C3CC3)CC1)C2)[C@@H](C)OCc1ccccc1` [I-114B], > 10000 nM. For `C[C@@H](OCC1CCCCC1)[C@H](NC(=O)[C@@H]1CN(C(=O)c2cnn(C(F)(F)F)c2)CC12CN(C(=O)[C@H]1CC1(C)C)C2)C(=O)N1CCCCC1` [I-115] the value was 100 to 1000 nM. For `CNC(=O)[C@@H](NC(=O)[C@@H]1CN(C(=O)c2cnn(Cc3ccccc3)c2)CC12CN(C(=O)C1(CC3CC3)CC1)C2)[C@@H](C)OCc1ccccc1` [I-116A], the IC50 was > 10000 nM.

Take `CNC(=O)[C@@H](NC(=O)[C@H]1CN(C(=O)c2cnn(Cc3ccccc3)c2)CC12CN(C(=O)C1(CC3CC3)CC1)C2)[C@@H](C)OCc1ccccc1` [I-116B]: the IC50 is > 10000 nM.

Consider `CNC(=O)[C@@H](NC(=O)[C@@H]1CN(C(=O)c2cnn(Cc3ccccc3)c2)CC12CN(C(=O)C1(CCF)CC1)C2)[C@@H](C)OCc1ccccc1` [I-117A], for which the IC50 lay within 1000 to 10000 nM. For `CNC(=O)[C@@H](NC(=O)[C@H]1CN(C(=O)c2cnn(Cc3ccccc3)c2)CC12CN(C(=O)C1(CCF)CC1)C2)[C@@H](C)OCc1ccccc1` [I-117B] the value was > 10000 nM. For `CC(=O)N1C[C@@H](C(=O)N[C@H](C(=O)N2CCCCC2)[C@@H](C)OCC2CCCCC2)C2(C1)CN(C(=O)[C@H]1CC1(C)C)C2` [I-118] the value was > 10000 nM; for `CNC(=O)[C@@H](NC(=O)[C@@H]1CN(C(=O)c2cnn(Cc3ccccc3)c2)CC12CN(C(=O)[C@H]1CC1(C)C)C2)[C@@H](C)OCC1CCOCC1` [I-119A], 100 to 1000 nM; for `CNC(=O)[C@@H](NC(=O)[C@H]1CN(C(=O)c2cnn(Cc3ccccc3)c2)CC12CN(C(=O)[C@H]1CC1(C)C)C2)[C@@H](C)OCC1CCOCC1` [I-119B], 1000 to 10000 nM.

For `CC1(C)C[C@@H]1C(=O)N1CC2(CN(C(=O)c3cnn(Cc4ccccc4)c3)C[C@H]2C(=O)N[C@H]2CCc3cc(Cl)ccc32)C1` [I-120A], the IC50 lay in the range of 100 to 1000 nM. For the compound `CC1(C)C[C@@H]1C(=O)N1CC2(CN(C(=O)c3cnn(Cc4ccccc4)c3)C[C@@H]2C(=O)N[C@H]2CCc3cc(Cl)ccc32)C1` [I-120B], the IC50 was 1000 to 10000 nM.
